Measured values from BindingDB's records for doi:10.1016/j.bmcl.2018.11.015 (Boehringer Ingelheim Pharmaceuticals, 2019).

Assay: Antagonist activity at CCR1 in human THP1 cells assessed as inhibition of chemotaxis after 30 mins by Celltiter-glo reagent based luminescence assay
Molecule `CC(C)[C@@H](NC(=O)NCC(C)(C)O)C(=O)N1CC[C@](O)(c2ccc(Cl)cc2)C(C)(C)C1` has an IC50 of 1.5 nM. For `COc1cc(N2CCN(C(=O)Cn3nc(-c4ncc[nH]4)c4cccnc43)CC2)ccc1Cl`, the IC50 was 4 nM. `CC(C)(O)c1ccc2c(c1)/C(=C\CCN1CC[C@](O)(c3ccc(Cl)cc3)C(C)(C)C1)c1cccnc1CO2` gave an IC50 of 1.8 nM. Molecule `Cc1c(C(=O)NCc2cccc(C(F)(F)F)c2)cnn1-c1ccc(Cl)c(Cl)c1` has an IC50 of 1200 nM.
